Results: US20100056527A1, “BENZOFURAN COMPOUNDS USEFUL IN THE TREATMENT OF CONDITIONS MEDIATED BY THE ACTION OF PGE2 AT THE EP1 RECEPTOR” (Glaxo Group Limited, priority 2007, published 2010)

Target: T1, human EP1 receptor (Homo sapiens, UniProt P34995)
T1 construct: expressed in transfected cells; host or cells: CHO-K1 cells (membrane fraction)
T1 sequence (P34995 1-402): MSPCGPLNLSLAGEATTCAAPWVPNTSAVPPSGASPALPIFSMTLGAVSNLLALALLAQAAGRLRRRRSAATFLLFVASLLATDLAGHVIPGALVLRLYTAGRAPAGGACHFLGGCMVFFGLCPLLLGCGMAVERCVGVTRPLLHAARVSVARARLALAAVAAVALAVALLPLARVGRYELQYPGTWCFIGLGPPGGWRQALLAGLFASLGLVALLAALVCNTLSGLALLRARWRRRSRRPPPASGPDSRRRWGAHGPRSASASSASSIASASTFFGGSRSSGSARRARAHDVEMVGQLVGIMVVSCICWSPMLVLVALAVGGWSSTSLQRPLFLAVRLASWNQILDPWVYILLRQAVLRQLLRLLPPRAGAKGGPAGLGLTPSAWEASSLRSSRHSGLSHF
Test: human EP1 calcium mobilization assay (FLIPR, PGE2-induced [Ca2+]i)
Format: cell-based
Details: CHO-K1 cells transfected with EP1 cDNA; antagonism of PGE2; averages of a number of experiments
Experimental: Briefly, the antagonist properties of compounds are assessed by their ability to inhibit the mobilization of intracellular calcium ([Ca^2+]i) in response to activation of EP1 or EP3 receptors by the natural agonist hormone prostaglandin E2 (PGE2). Increasing concentrations of antagonist reduce the amount of calcium that a given concentration of PGE2 can mobilize. The net effect is to displace the PGE2 concentration-effect curve to higher concentrations of PGE2. The amount of calcium produced is assessed using a calcium-sensitive fluorescent dye such as Fluo-4, AM and a suitable instrument such as a Fluorimetric Imaging Plate Reader (FLIPR). Increasing amounts of [Ca^2+]i produced by receptor activation increase the amount of fluorescence produced by the dye and give rise to an increasing signal. The signal may be detected using the FLIPR instrument and the data generated may be analyzed with suitable curve-fitting software.
The human EP1 or EP3 calcium mobilization assay (hereafter referred to as ‘the calcium assay’) utilises Chinese hamster ovary-K1 (CHO—K1) cells into which a stable (PClN; BioTechniques 20 (1996): 102-110) vector containing either EP1 or EP3 cDNA has previously been transfected. Cells are cultured in suitable flasks containing culture medium such as DMEM:F-12 supplemented with 10% v/v foetal calf serum, 2 mM L-glutamine, 0.25 mg/ml geneticin, 100 μM flurbiprofen and 10 μg/ml puromycin.
For assay, cells are harvested using a proprietary reagent that dislodges cells such as Versene. Cells are re-suspended in a suitable quantity of fresh culture media for introduction into a 384-well plate. Following incubation for 24 hours at 37° C. the culture media is replaced with a medium containing Fluo-4 and the detergent pluronic acid, and a further incubation takes place. Concentrations of compounds are then added to the plate in order to construct concentration-effect curves. This may be performed on the FLIPR in order to assess the agonist properties of the compounds. Concentrations of PGE2 are then added to the plate in order to assess the antagonist properties of the compounds.
The data so generated may be analyzed by means of a computerised curve-fitting routine. The concentration of compound that elicits a half-maximal inhibition of the calcium mobilization induced by PGE2 (pIC50) may then be estimated.
The compounds of Examples 1-28 and 30-156 were tested in the human EP1 calcium mobilization assay. The results are expressed as functional pKi values. A functional pKi is the negative logarithms of the antagonist dissociation constant as determined in the human EP1 calcium mobilization assay. The results given are averages of a number of experiments.

| Structure (SMILES) | functional pKi in the human EP1 calcium mobilization assay |
| --- | --- |
| Cl.N#Cc1ccc(-c2cc3cc(Cl)cc(Cc4ccc(C(=O)NCC5CCNCC5)o4)c3o2)cc1 [Example 37, 5-{[5-Chloro-2-(4-cyanophenyl)-1-benzofuran-7-yl]methyl}-N-(4-piperidinylmethyl)-2-furancarboxamide hydrochloride] | did not show activity |
| Cc1cc(C(=O)Nc2ccncc2)nn1Cc1cc(Cl)cc2cc(-c3ccccc3)oc12 [Example 68, 1-[(5-chloro-2-phenyl-1-benzofuran-7-yl)methyl]-5-methyl-N-4-pyridinyl-1H-pyrazole-3-carboxamide] | did not show activity |
| Cc1cc(C(=O)NC(C)(C)C)nn1Cc1cc(Cl)cc2cc(-c3ccc(F)cc3F)oc12 [Example 112, 1-{[5-chloro-2-(2,4-difluorophenyl)-1-benzofuran-7-yl]methyl}-N-(1,1-dimethylethyl)-5-methyl-1H-pyrazole-3-carboxamide] | did not show activity |
| CC(C)(C)OC(=O)Nc1ccc(Cc2cc(Cl)cc3cc(-c4ccccc4)oc23)o1 [Example 156, 1,1-Dimethylethyl {5-[(5-chloro-2-phenyl-1-benzofuran-7-yl)methyl]-2-furanyl}carbamate] | did not show activity |
